Results reported in patent publication US7659277B2, “Ubiquitin ligase inhibitors and methods related thereto” (Proteologies, Ltd., priority 2003, dated 2010).

target: T1, POSH (Homo sapiens, UniProt Q7Z6J0); assay: Selectivity (% A in 1 μM), ubiquitin ligase activity of POSH; format: biochemical; details: % activity at 1 μM compound; control is related to 100% activity; HTS protocol; read-out: Selectivity (% A* in 1 μM) POSH
T1 construct: GST-POSH lot NB81/p.118 3.6 mg/ml; fused on or other part: GST tag, used for detection with anti-GST XL665
T1 sequence (Q7Z6J0 1-269 limits assumed): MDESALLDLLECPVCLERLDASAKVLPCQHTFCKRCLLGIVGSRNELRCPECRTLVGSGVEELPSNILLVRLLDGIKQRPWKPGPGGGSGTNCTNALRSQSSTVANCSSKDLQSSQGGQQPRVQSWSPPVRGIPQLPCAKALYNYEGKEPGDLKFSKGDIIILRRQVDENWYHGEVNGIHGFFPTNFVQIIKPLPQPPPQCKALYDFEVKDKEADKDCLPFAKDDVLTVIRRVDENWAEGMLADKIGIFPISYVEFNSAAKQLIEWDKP
Protocol: Experimental Protocols: 1. HTS Screening Assay Procedure • Microplates 10109D to 10114D compounds at 1 mM. • (Controls in column 1). • All compounds were perchase from ChemBridge corporation: ChemBridge corporation 16981 Via Tazon, Suite G San Diego, Calif. 92127 a. Microplates Labeling • Put labels to 6 PS U-bottom clear microplate. • Put labels to 18 black microplates (triplicats). b. Microplates Preparation • Put 100 μl GST-POSH at 33 nM in wells of the clear PS U-bottom microplates (exept wells A1-D1). • Negative control: place 100 μl dH2O in wells A1-D1. • (Positive control: place 100 μl GST-POSH at 33 nM in wells E1-H1). • Put 8 μl enzymes solution ×4 to black microplates (column 1 to 11). c. Incubation of E3 with Compounds • Transfer 5 μl of compounds (at 1 mM) to the microplates containing 100 μl GST-POSH. • Add 5 μl of DMSO to controls column 1. • Incubation 30 minutes at RT. d. […] 2. […] Microplates Labeling • Put labels to 4 clear PP clear microplate (18.2 μM, 9.1 uM, 1.82 uM, 910 nM,). • Put labels to 5 clear PS U-bottom clear microplate 4.44 μM, 909, 444, 91 and 44 nM) • Put labels to 15 black microplates (triplicates). f. Original Microplate Dilutions • Put DMSO 40 μl to (18.2 μM, 1.82 uM plates) and 20 ul to (9.1 uM, 910 nM plates. • Mix by pipetation the original microplate (3× up and down 45 μl). • Transfer 10 μl of compounds from the original microplate (at 91 μM) to the next microplate (=18.2 μM) on splitting apparatus. • Mix by pipetation the 18.2 uM microplate (3× up and down 45 μl). • Transfer 20 μl of compounds from the 18.2 uM microplate to the next microplate (=9.1 μM) on splitting apparatus. • Mix by pipetation the 9.1 uM microplate (3× up and down 45 μl). • Transfer 10 μl of compounds from the 9.1 uM microplate to the next microplate (=1.82 μM) on splitting apparatus. • Mix by pipetation the 1.82 uM microplate (3× up and down 45 μl). • Transfer 20 μl of compounds from the 1.82 uM microplate to the next microplate (=910 nM) on splitting apparatus • Mix by pipetation. g. Microplates Preparation • Put 123 μl GST-POSH at 33 nM in wells of the 5 clear PS U-bottom clear microplates. • Positive control: place 123 μl GST-POSH at 33 nM in well A12-h12 13 μl DMSO. • Negative control: place 123 μl dH2O in well B1 and 13 μl DMSO. • Put 8 μl enzymes solution ×4 to 15 black microplates. • Controls: put 8 μl enzymes solution ×4 to wells A1 to F1. h. Incubation of POSH with Compounds • Take 7 μl of compounds at original plate (91 μM) and put into the 4.44 μM labeled microplate containing 123 μl GST-POSH, on splitting apparatus. • Mix by pipetation (3× up and down 115 μl), note time. • Take 7 μl of compounds at 18.2 μM and put into the 910 nM labeled microplate containing 123 μl GST-POSH, on splitting apparatus. • Mix by pipetation (3× up and down 115 μl), note time. • Take 7 μl of compounds at 9.1 μM and put into the 444 nM labeled microplate containing 123 μl GST-POSH, on splitting apparatus. • Mix by pipetation (3× up and down 115 μl), note time. • Take 7 μl of compounds at […] and put into the 91 nM labeled microplate containing 123 μl GST-POSH, on splitting apparatus. • Mix by pipetation (3× up and down 115 μl), note time. • Take 7 μl of compounds at 91.0 nM and put into the 44 nM labeled microplate containing 123 μl GST-POSH, on splitting apparatus. • Mix by pipetation (3× up and down 115 μl), note time. • Incubation 30 minutes at RT. i.

SMILES	remaining activity at 1 µM
CN(C)c1ccc(/C=C2/C(=O)NC(=O)N(C3CCCCC3)C2=O)cc1 [Compound 3]	47%
O=C1NC(=O)N(c2ccccc2)C(=O)/C1=C\c1ccc2c(c1)OCO2 [Compound 4]	48%
COc1ccc(C(=O)CC2=C(O)C(=O)c3ccccc3C2=O)cc1 [Compound 89]	45%
O=C(/C=C/c1cccnc1)c1ccc(C(=O)/C=C/c2cccnc2)cc1 [Compound 92]	21%
Cc1ccc(C(=O)NN=C2CCC(=NNC(=O)c3ccc(C)cc3)CC2)cc1 [Compound 93]	21%
O=C(Cc1ccccc1)N1N=CCC1(O)c1ccc(F)cc1 (stereo not drawn) [Compound 94]	71%
Cc1[nH]c(=O)c(C(=O)/C=C/c2ccccc2F)c2c1CCCC2 [Compound 95]	12%
COC(=O)C1=C(C(=O)OC)SC(=C2C(=S)C(C)(C)N(C(C)=O)c3cc(C)ccc32)S1 [Compound 99]	36%
COc1ccc(Nc2ccc(O)c3c2C(=O)c2ccccc2C3=O)cc1 [Compound 100]	99%
COc1cc(C2Nc3ccccc3NC3=C2C(=O)CC(C)(C)C3)cc(Br)c1O (stereo not drawn) [Compound 102]	52%
O=C(NCc1ccc(Cl)cc1)C(=O)Nc1ccccc1 [Compound 104]	111%

same assay, conditions: read-out: Selectivity (% A* in 1 μM) POSH

SMILES	remaining activity at 1 µM
O=C(O)COc1ccc2c(c1)oc(=O)c1ccccc12 [Compound 85]	26%
Cc1cc(O)c(C(=O)/C=C/c2cccc(I)c2)c(=O)o1 [Compound 87]	33%
O=C(NC(C(Cl)(Cl)Cl)S(=O)(=O)c1ccccc1)c1ccc(Cl)cc1Cl (stereo not drawn) [Compound 88]	172%
O=C1c2ccccc2-c2nc3nonc3nc21 [Compound 91]	11%
O=c1oc2ccccc2c(O)c1C(=S)Nc1ccccc1 [Compound 96]	105%
O=C(Nc1cccc2c(NC(=O)C3C4CCCCC43)cccc12)C1C2CCCCC21 (stereo not drawn) [Compound 97]	13%
Cc1cc(OC(=O)Cn2c(=O)sc3ccccc32)ccc1Cl [Compound 103]	102%
